Data from US20180303859A1, “Agent For Preventing And/Or Treating Scleroderma” (THE UNIVERSITY OF TOKYO, priority 2015, published 2018).

Assays:
[1] = test system: BLM-induced scleroderma model mice; test: Study on inflammation and immune abnormality in BLM-induced scleroderma model mice (FACS of CD4-positive cells, skin cytokine mRNA); assay type: in vivo
Protocol: BLM-induced scleroderma model mice were prepared by the same treatment as in Example 1 except that the bleomycin administration treatment was carried out for only one week. On the last day of the administration, bilateral inguinal lymph nodes and the spleen were removed from each mouse. After mashing the lymph nodes, lymphocytes were separated therefrom. To blood cells removed from the spleen, RBC lysis buffer (0.0017 M Trizma, Sigma-Aldrich, 0.1 M NH4Cl 2.675 g, Sigma-Aldrich) was added to separate lymphocytes. The lymphocytes were subjected to staining of surface antigens using an anti-CD3 antibody (17A2), anti-CD4 antibody (RM4-5), and anti-CD8a antibody (53-6.7). Further, stimulation was carried out with 10 ng/ml phorbol myristate acetate (Sigma-Aldrich), 1 μg/ml ionomycin (Sigma-Aldrich), and 1 μg/ml brefeldin A ([…]; BD PharMingen) for four hours, and staining of intracellular antigens was carried out using an anti-interleukin (IL)-4 antibody (11B11), anti-IL17A antibody (TC11-18HC0.1), and anti-interferon (IFN)-γ antibody (XMG1.2) (all antibodies were manufactured by BioLegend, San Diego, Calif., USA). The stained lymphocytes were analyzed using a FACS Verseflow cytometer (BD Biosciences).
Further, from the skin of the back at the injection site of each BLM-induced scleroderma model mouse, RNA was extracted by the same method as in Example 1, and the mRNA levels of IL4, IL1 b, and arginase were measured. Primers having the following sequences were used.

[2] = test system: mice deficient for vascular endothelial cell-specific Fli1 (Fli1 flox/flox; Tie2-Cre); test: Extravasation of Evans blue dye in vascular endothelial cell-specific Fli1 deficient mice; assay type: in vivo; conditions: vascular endothelial cell-specific Fli1 knockout mice; intraperitoneal administration, two weeks; absorbance at 620 nm
Protocol: Subsequently, under the same conditions as in Example 1, monoammonium glycyrrhizinate or PBS was intraperitoneally administered to 10-week-old mice deficient for vascular endothelial cell-specific Fli1 (Fli1 flox/flox; Tie2-Cre: see American Journal of Pathology, April 2010 Volume 176, Issue 4, p 1983-1998), which are model mice for angiopathy in scleroderma, or to control mice (Fli1 flox/flox). Two weeks later, 200 μl of Evans blue dye (0.5% in PBS) was administered into the tail vein of each mouse, and the mouse was euthanized 30 minutes thereafter, followed by incision of the skin from the middle of the abdomen. Cutaneous blood vessels were macroscopically observed from the dermal side to evaluate the degree of leakage of the dye. Further, for measurement of extravasation of Evans blue, skin was collected from three positions using a skin biopsy punch with a diameter of 4 mm, and then allowed to dissolve in formamide at 37° C. for 24 hours, followed by measurement of the absorbance at a wavelength of 620 nm using a microplate reader.

[3] = test system: BLM-induced scleroderma model mice; test: Study on fibrosis in BLM-induced scleroderma model mice (dermal thickness, collagen, α-SMA-positive fibroblasts, skin mRNA); assay type: in vivo, C57BL/6 mice
Protocol: To the skin of the back of 8-week-old C57BL/6 mice (wild type), 1 mg/ml bleomycin (BLM) solution prepared with phosphate buffered saline (PBS) was intracutaneously injected at a dose of 300 μg every day for four weeks to prepare BLM-induced scleroderma model mice. A control group was provided by subcutaneous injection of the same amount of PBS. At the same time, monoammonium glycyrrhizinate (Cokey Co., Ltd.) dissolved in PBS was intraperitoneally administered at a dose of 30 mg/kg every day for four weeks. A control group was provided by intraperitoneal administration of the same amount of PBS. Using a skin biopsy punch with a diameter of 6 mm, the skin tissue at the injection site was collected, and subjected to Hematoxylin & Eosin staining to measure the dermal thickness. Further, a skin sample collected by the same method was subjected to quantification of the collagen content using a QuickZyme Total Collagen Assay kit (QuickZyme BioSciences B.V., Netherlands).
Paraffin sections were prepared using the skin of the back at the injection site of each BLM-induced scleroderma model mouse, and reacted with an anti-α-smooth muscle actin (α-SMA) antibody (Sigma-Aldrich, St. Louis, Mo., USA) according to the manufacturer's instruction provided for the VEVTOR M.O.M Immunodetection Kit (Vector laboratories, Burlingame, Calif., USA), followed by coloring with DAB (0.2 mg/ml, DOJINDO LABORATORIES, Kumamoto, JAPAN). For each mouse skin sample, three photographs of the superficial dermal layer were randomly taken for ×400 viewing areas, and the numbers of spindle-shaped cells positive for α-SMA were counted. Their average was regarded as the number of α-SMA-positive fibroblasts in the mouse. Comparison was made between the glycyrrhizic acid group and the control group.
Further, RNA was extracted from the skin of the back at the injection site of each BLM-induced scleroderma model mouse using an RNeasy min kit (Qiagen Valencia, Calif., USA), and then reverse-transcribed into cDNA using iScript cDNA Synthesis Kits (Bio-Rad, Hercules, Calif., USA). Measurement by quantitative real-time PCR was carried out using a SYBR Green PCR Master Mix (Life technologies) with ABI prism 7000 (Life technologies). The measurement was carried out in triplicate for each sample to calculate the average value. As a reference gene, Gapdh was used. The relative expression level of mRNA of the subject gene was calculated by the ^ΔΔCt method. Primers having the following sequences were used.

[4] = test system: BLM-induced scleroderma model mice; test: Endothelial-to-mesenchymal transition (Endo-MT) in skin of BLM-induced scleroderma model mice (VE-cadherin/FSP1 immunostaining, Snail1 mRNA); assay type: in vivo
Protocol: Paraffin sections were prepared using skin samples of the injection site of BLM-induced scleroderma model mice prepared under the same conditions as in Example 1. A rabbit anti-VE-cadherin antibody (Santa Cruz Biotechnolog) and a goat anti-fibroblast-specific protein 1 (FSP1) antibody (abcam, Cambridge, UK) as primary antibodies, and an FITC-conjugated donkey anti-rabbit IgG antibody (Santa Cruz Biotechnolog) and an Alexa Fluor donkey 555 anti-goat IgG antibody (Invitrogen, Carlsbad, Calif., USA) as secondary antibodies, were reacted with the sections, and nuclear staining was performed using Vectashield with DAPI (Vector Laboratories, Burlingame, Calif., USA). Observation was carried out using Bio Zero BZ-8000 (Keyence, Osaka, Japan) at wavelengths of 495 nm (green), 565 nm (red), and 400 nm (blue). The number of cells stained with both FSP1 and VE-Cadherin, which are observed as green color and red color, respectively (cells that had undergone Endo-MT), was compared. Further, from the skin samples, RNA was extracted by the same method as in Example 1, and the mRNA level of Snail1 was measured. Primers having the following sequences were used.

[5] = lymph nodes or spleen, BLM for one week, FACS
[6] = skin tissue of BLM-induced scleroderma model mice
[7] = skin of BLM-induced scleroderma model mice, quantitative real-time PCR

## CC1(C)[C@@H](O[C@H]2O[C@H](C(=O)O)[C@@H](O)[C@H](O)[C@H]2O[C@@H]2O[C@H](C(=O)O)[C@@H](O)[C@H](O)[C@H]2O)CC[C@]2(C)[C@H]3C(=O)C=C4[C@@H]5C[C@@](C)(C(=O)O)CC[C@]5(C)CC[C@@]4(C)[C@]3(C)CC[C@@H]12 [glycyrrhizic acid]
[1]; [5]
  ratio of IFN-γ-positive cells among CD4-positive cells: did not cause any change
  ratio of IL17A-positive cells among CD4-positive cells: did not cause any change
[1]; lymph nodes, BLM for one week, FACS
  ratio of IL4-positive cells among CD4-positive T cells: significant decreases
[1]; [6]
  mRNA of arginase (marker for M2 macrophages): decreased
  mRNA of interleukin 1 b: decreased
  mRNA of interleukin 4: decreased
[1]; spleen, BLM for one week, FACS
  ratio of IL4-positive cells among CD4-positive T cells: significant decreases
[2]
  extravasation of Evans blue: significantly decreased
[3]; BLM-induced scleroderma model mice, 30 mg/kg i.p. daily, four weeks
  number of myofibroblasts (α-SMA-positive fibroblasts) in the skin: significant decrease
[3]; BLM-induced scleroderma model mice, 30 mg/kg intraperitoneally every day for four weeks
  dermal thickness (thickening of the dermis): reduced
[3]; BLM-induced scleroderma model mice, skin at injection site, 30 mg/kg i.p. daily, four weeks
  amount of collagen fibers: decreased
[3]; control mice not subjected to BLM induction, 30 mg/kg i.p. daily, four weeks
  amount of collagen fibers: did not cause any change
[3]; control mice not subjected to BLM induction, 30 mg/kg intraperitoneally every day for four weeks
  dermal thickness: did not cause any change
[3]; [7]
  mRNA of Col1a1: significant decreases
  mRNA of Col1a2: significant decreases
  mRNA of Col3a1: significant decreases
  mRNA of Mmp13 (collagenase): significant increase
  mRNA of thrombospondin (Thbs1): decrease
[4]
  mRNA level of Snail1: significantly decreased
[4]; immunostaining
  increase in cells that have undergone Endo-MT (stained for both VE-cadherin and FSP1): suppressed
